From PubChem BioAssay AID1963446 (Molecular Pharmacology Branch, DTP, NCI, 2024)
“And” between values parts separate entries of the source, which are not always exact repeats. Equal entries are not always repeated. Values belong to the molecule of their own block, whether it stands above or below them.

Test system: 993429-296-R-J1-PDC complex spheroid growth, percent test/control
Test: Anticancer human tumor 993429-296-R-J1-PDC patient-derived uterine sarcoma cell line growth inhibition [Asc]
Details: for viability, T/C: stronger effect = lower value
Procedure, shortened: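 Tumor cells were grown as complex spheroids with human endothelial cells (HUVEC) and human mesenchymal stem cells as stroma. Agents were tested alone and in combination, in half-log steps down from the clinical Cmax, or from 10 microM where Cmax was unknown.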
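Note: spheroids exposed to compounds for seven days.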

IC50 (curve of first compound, second compound 0.1 µM): > 10000 nM | IC50 (curve of first compound, second compound 0.316 µM): 4920 nM | IC50 (curve of first compound, second compound 1 µM): 4340 nM | IC50 (curve of first compound, second compound 3.16 µM): 524 nM | IC50 (curve of first compound, second compound 10 µM): 5690 nM
SMILES: C=CC(=O)N1CCN(c2nc(=O)n(-c3c(C)ccnc3C(C)C)c3nc(-c4c(O)cccc4F)c(F)cc23)C(C)C1 (centres undefined) + Cc1c(S(C)(=O)=O)c(-c2cc(F)cc(N3CCN(c4ccc(NS(=O)(=O)c5ccc(NC(CCN6CCC(C(=O)OCCCP(=O)(O)O)CC6)CSc6ccccc6)c(S(=O)(=O)C(F)(F)F)c5)cc4)CC3)c2)c(-c2ccc(Cl)cc2)n1C(C)C
viability, T/C (second compound 0.1 µM, first compound 0.0316 µM): 83.5% | viability, T/C (second compound 0.1 µM, first compound 0.1 µM): 81.1% | viability, T/C (second compound 0.1 µM, first compound 0.316 µM): 91.9% | viability, T/C (second compound 0.1 µM, first compound 1 µM): 75.1% | viability, T/C (second compound 0.1 µM, first compound 3.16 µM): 76.5% | viability, T/C (second compound 0.1 µM, first compound 10 µM): 54.6% | viability, T/C (second compound 0.316 µM, first compound 0.0316 µM): 79% | viability, T/C (second compound 0.316 µM, first compound 0.1 µM): 80.6% | viability, T/C (second compound 0.316 µM, first compound 0.316 µM): 69.2% | viability, T/C (second compound 0.316 µM, first compound 1 µM): 75% | viability, T/C (second compound 0.316 µM, first compound 3.16 µM): 62.3% | viability, T/C (second compound 0.316 µM, first compound 10 µM): 30.5% | viability, T/C (second compound 1 µM, first compound 0.0316 µM): 62.9% | viability, T/C (second compound 1 µM, first compound 0.1 µM): 53.5% | viability, T/C (second compound 1 µM, first compound 0.316 µM): 76.8% | viability, T/C (second compound 1 µM, first compound 1 µM): 62.1% | viability, T/C (second compound 1 µM, first compound 3.16 µM): 47.3% | viability, T/C (second compound 1 µM, first compound 10 µM): 41.8% | viability, T/C (second compound 3.16 µM, first compound 0.0316 µM): 51.1% | viability, T/C (second compound 3.16 µM, first compound 0.1 µM): 59.9% | viability, T/C (second compound 3.16 µM, first compound 0.316 µM): 54.4% | viability, T/C (second compound 3.16 µM, first compound 1 µM): 43.8% | viability, T/C (second compound 3.16 µM, first compound 3.16 µM): 34.9% | viability, T/C (second compound 3.16 µM, first compound 10 µM): 45.9% | viability, T/C (second compound 10 µM, first compound 0.0316 µM): 106% | viability, T/C (second compound 10 µM, first compound 0.1 µM): 81% | viability, T/C (second compound 10 µM, first compound 0.316 µM): 86.6% | viability, T/C (second compound 10 µM, first compound 1 µM): 86.1% | viability, T/C (second compound 10 µM, first compound 3.16 µM): 64.7% | viability, T/C (second compound 10 µM, first compound 10 µM): 34.9%

IC50 (curve of compound): 61.4 nM and 42.6 nM and 212 nM
SMILES: O=C(c1ccc(F)c(F)c1Nc1ccc(I)cc1F)N1CC(O)([C@@H]2CCCCN2)C1
viability, T/C (compound 0.00316 µM): 94.3% and 75.1% and 94.5% | viability, T/C (compound 0.01 µM): 86% and 69.7% and 83.4% | viability, T/C (compound 0.0316 µM): 62.6% and 54.8% and 79.4% | viability, T/C (compound 0.1 µM): 41% and 34.7% and 70.9% | viability, T/C (compound 0.316 µM): 14.8% and 10.7% and 39.1% | viability, T/C (compound 1 µM): 1.26% and 1.77% and 3.59%

IC50 (curve of compound): > 100 nM
SMILES: NC1CCC(NC2CC2c2ccccc2)CC1 (centres undefined)
viability, T/C (compound 0.000316 µM): 72.9% and 80.7% and 109% | viability, T/C (compound 0.001 µM): 70.1% and 86.3% and 87% | viability, T/C (compound 0.00316 µM): 85.3% and 78.1% and 85.6% | viability, T/C (compound 0.01 µM): 78.4% and 94.6% and 91.1% | viability, T/C (compound 0.0316 µM): 68% and 88.5% and 86.8% | viability, T/C (compound 0.1 µM): 74.9% and 76.6% and 79.7%
